Columns and labels:
[1] = molecular target: methyl halide transferase (Batis maritima, UniProt Q9ZSZ7); conditions: halide ion as substrate; Attieh et al. 1995, Ni and Hager 1999; cited from earlier work
S. cerevisiae W303a = test: Methyl iodide toxicity assay in yeast; type: cell-based, Saccharomyces cerevisiae; conditions: OD600 at 24 hours of growth, commercially available CH3I added
Source text: (§1) FIG. 11A-D: Methyl iodide production in recombinant S. cerevisiae. FIG. 11A. CH3I production pathway. The B. maritima MHT is expressed with a N-terminal vacuole targeting tag. The […] MHT methylates iodide ions using SAM as a methyl donor. FIG. 11B, CH3I measured in culture headspace over time. Activity on glucose-grown cells is shown. FIG. 11C, CH3I yields in grams per liter of culture per day. Values for the culturable red algae E. muricata are taken from the literature. Yields from B. maritima MHT-expressing E. coli and S. cerevisiae are calculated by comparison to standard curves. FIG. 11D, CH3I toxicity in yeast. Exponential phase cultures were diluted to an OD600 of 0.05 and commercially available CH3I was added. OD600 was measured at 24 hours of growth. The W303a lab strain is shown in filled boxes, the DNA methylation-sensitive RAD50Δ mutant is shown in open boxes.
(§2) Individual colonies were inoculated in YP media with 2% glucose and grown overnight. Cultures were diluted to an OD600 of 0.05 and methyl iodide was added to the specified amount. […] OD600 was measured by spectrometry with YP media used as a blank. Each data point was performed in triplicate. The RAD50Δ mutant was obtained from the Saccharomyces Genome Deletion Project (Invitrogen).

RAD50Δ mutant = type: cell-based, Saccharomyces cerevisiae; conditions: RAD50Δ mutant compared with W303a
Source text: as §1, §2

methyl halide transferase, sequence (Q9ZSZ7 1-230): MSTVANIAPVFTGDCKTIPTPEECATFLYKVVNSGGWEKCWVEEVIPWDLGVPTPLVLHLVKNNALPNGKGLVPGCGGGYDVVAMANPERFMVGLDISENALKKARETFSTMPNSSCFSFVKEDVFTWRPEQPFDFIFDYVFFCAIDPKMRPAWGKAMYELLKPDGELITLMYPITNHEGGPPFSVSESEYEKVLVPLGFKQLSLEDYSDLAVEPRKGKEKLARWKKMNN

SMILES | Km [1] | level up to which yeast were resistant to deleterious methylating effects of methyl iodide (S. cerevisiae W303a) | sensitivity to methyl iodide (RAD50Δ mutant)
I [I^−, iodide] | 8.5 mM |  | 
CI [methyl iodide] |  | > 5000 µg/mL | increased sensitivity
[Br-].[K+] [Br^−, bromide] | 18.5 mM |  | 
